According to US7786145B2, “Cyanoguanidine-based azole compounds useful as malonyl-CoA decarboxylase inhibitors” (Chugai Seiyaku Kabushiki Kaisha, priority 2003, dated 2010):

How the values were obtained:
[1] = target: T1, hMCD (malonyl-CoA decarboxylase) (Homo sapiens, UniProt O95822); assay: In Vitro MCD Inhibitory Assay; assay type: biochemical
T1 sequence (O95822 40-493): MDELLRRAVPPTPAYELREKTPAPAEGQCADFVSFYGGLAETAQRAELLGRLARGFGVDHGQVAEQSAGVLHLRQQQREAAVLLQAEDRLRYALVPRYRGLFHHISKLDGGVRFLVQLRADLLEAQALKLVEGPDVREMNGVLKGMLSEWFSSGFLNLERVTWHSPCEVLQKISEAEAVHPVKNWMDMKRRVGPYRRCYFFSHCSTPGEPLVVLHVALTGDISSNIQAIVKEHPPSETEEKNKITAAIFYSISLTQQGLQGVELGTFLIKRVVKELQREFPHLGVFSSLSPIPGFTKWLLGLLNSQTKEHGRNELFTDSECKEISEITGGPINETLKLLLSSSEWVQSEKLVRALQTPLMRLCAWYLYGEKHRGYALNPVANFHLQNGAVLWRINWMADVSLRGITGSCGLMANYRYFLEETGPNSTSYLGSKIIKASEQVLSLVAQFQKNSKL
Experimental: In Vitro MCD Inhibitory Assay:
The conversion of […] was assayed using a modified protocol as previously described by Kim, Y. S. and Kolattukudy, P. E. in 1978 (Arch. Biochem. Biophys 190:585 (1978)). As shown in eq. 1-3, the establishment of the kinetic equilibrium between malate/NAD and oxaloacetate/NADH was catalyzed by malic dehydrogenase (eq. 2). […] The accumulation of NADH can be continuously followed by monitoring the increase of fluorescence emission at 460 nm on a fluorescence plate reader. The fluorescence plate reader was calibrated using the authentic acetyl-CoA from Sigma. For a typical 96-well plate assay, the increase in the fluorescence emission (λex=360 nm, λem=460 nm, for NADH) in each well was used to calculate the initial velocity of hMCD. Each 50 μL assay contained 10 mM phosphate buffered saline (Sigma), pH 7.4, 0.05% Tween-20, 25 mM K2HPO4—KH2PO4 (Sigma), 2 mM Malate (Sigma), 2 mM NAD (Boehringer Mannheim), 0.786 units of MD (Roche Chemicals), 0.028 unit of CS (Roche Chemicals), 5-10 nM hMCD, and varying amounts of MCA substrate. Assays were initiated by the addition of MCA, and the rates were corrected for the background rate determined in the absence of hMCD.

breast carcinoma cells = conditions: cited from earlier work
[2] = system: Isolated Working Rat Hearts; assay: Glucose oxidation in isolated working rat hearts; parameters: unit not given here; conditions: DMSO control
Experimental: Isolated Working Rat Heart Assay Protocol
Isolated working hearts from male Sprague-Dawley rats (300-350 g) are subjected to a 60-minute aerobic perfusion period. The working hearts are perfused with 95% O2, 5% CO2 with a modified Krebs-Henseleit solution containing 5 mM glucose; 100 μU/mL insulin; 3% fatty acid-free BSA; 2.5 mM free Ca^2+, and 0.4 to 1.2 mmol/L palmitate (Kantor et al., Circulation Research 86:580-588(2000)). The test compound is added 5 minutes before the perfusion period. DMSO (0.05%) is used as control.
Measurement of Glucose Oxidation Rates
Samples were taken at 10-minute intervals for measurements of experimental parameters. Glucose oxidation rates are determined by the quantitative collection of ^14CO2 produced by hearts perfused with buffer containing [U14]-Glucose (R. Barr and G. Lopaschuk, in “Measurement of cardiovascular function”, McNeill, J. H. ed., Chapter 2, CRC press, New York (1997)). After the perfusion, the ^14CO2 from the perfusae is subsequently released by injecting 1 mL of perfusate into sealed test tube containing 1 mL of 9N H2SO4. The tube was sealed with a rubber stopper attached to a scintillation vial containing a piece of filter papers saturated with 300 μl of hyamine hydroxide. The scintillation vials with filter papers were then removed and Ecolite Scintillation Fluid added. Samples were counted by standard procedures as described above. Average rates of glucose oxidation for each phase of perfusion are expressed as μmol/min/g dry wt as described above.
Rates of fatty acid oxidation are determined using the same method as described above for glucose oxidation rate measurement using [^14C]palmitate or by the quantitative collection of ^3H2O produced by hearts perfused with buffer containing [5-^3H]palmitate (R. Barr and G. Lopaschuk, in “Measurement of cardiovascular function”, McNeill, J. H. ed., Chapter 2, CRC press, New York (1997)). ^3H2O was separated from [5-^3H]palmitate by treating 0.5 mL buffer samples with 1.88 mL of a mixture of chloroform/methanol (1:2 v:v) and then adding 0.625 mL of chloroform and 0.625 mL of a 2 M KCl/HCl solution. The sample is centrifuged for 10 min and aqueous phase was removed and treated with a mixture of 1 mL of chloroform, 1 mL of methanol and 0.9 mL KCl/HCl with a ration of 1:1:0.9. The aqueous layer was then counted for total ^3H2O determination. […] Average rates of fatty acid oxidation for each phase of perfusion are expressed as nmol/min/g dry wt after taking consideration the dilution factor. Active compounds are characterized by an increase in glucose oxidation and/or decrease in fatty acid oxidation as compared to the control experiments (DMSO). The compounds that caused statistically significant increases in glucose oxidation and/or decrease in fatty acid oxidation are considered to be active. Statistical significance was calculated using the Student's t test for paired or unpaired samples, as appropriate. The results with P<0.05 are considered to be statistically significant.

CPT-I muscle isoform = conditions: muscle isoform of CPT-I; read-out: IC50 of malonyl-CoA inhibition; cited from earlier work
CPT-I liver isoform = conditions: liver isoform of CPT-I; read-out: IC50 of malonyl-CoA inhibition; cited from earlier work

SMILES	Ki ([1]; Table 1, MCD inhibition)	further results
CCN(C(=NC#N)NCc1ccc(OC(F)(F)F)cc1)c1ccc2nc(S)sc2c1 [CBM-000302291]	49.5 nM	–
CCCCOc1ccc(NC(=NC#N)Nc2ccc3nc(S)sc3c2)cc1 [CBM-000302048]	35.1 nM	–
CCCCN(/C(=N/C#N)Nc1cccnc1)c1ccc2nc(S)sc2c1 [CBM-000302113]	110 nM	–
CC(C)N(/C(=N/C#N)Oc1ccccc1)c1ccc2nc(S)sc2c1 [CBM-000302339, 3-Cyano-1-isopropyl-1-(2-mercapto-benzothiazol-6-yl)-2-phenyl-isourea]	5.9 nM	–
CCCCN(C(=NC#N)Nc1cccc(C(F)(F)F)c1)c1ccc2nc(S)sc2c1 [CBM-000302114]	210 nM	–
CC(C)CN(C(=NC#N)Nc1cccc(C(F)(F)F)c1)c1ccc2nc(S)sc2c1 [CBM-000302115]	320 nM	–
CCCCCCCCCCCCCCOc1ccc(C(=O)O)o1 [TOFA, 5-(tetradecyloxy)-2-furoic acid]	–	malonyl-CoA level (breast carcinoma cells): 60 % of the control
CCOc1ccc(NC(=NC#N)Nc2ccc3nc(S)sc3c2)cc1 [CBM-000302049]	448 nM	–
CCN(C(=NC#N)NCc1ccc(C(F)(F)F)cc1)c1ccc2nc(S)sc2c1 [CBM-000302290]	82.4 nM	–
CN(C(=NC#N)Nc1ccc(C(F)(F)F)cc1)c1ccc2nc(S)sc2c1 [CBM-000302167]	2 nM	Ki ([1]; Table 2, MCD inhibition): 2 nM; GOX [2]: 239
N#C/N=C(\Nc1ccc(OC(F)(F)F)cc1)Nc1ccc2nc(S)sc2c1 [CBM-000302047, N-cyano-N′-(2-mercapto-benzothiazol-6-yl)-N″-(4-trifluoromethoxy-phenyl)guanidine]	242 nM	–
COc1ccc(NC(=NC#N)Nc2ccc3nc(S)sc3c2)cc1 [CBM-000302018]	133 nM	–
CC(C)(COP(=O)(O)OP(=O)(O)OC[C@H]1O[C@@H](n2cnc3c(N)ncnc32)[C@H](O)[C@@H]1OP(=O)(O)O)[C@@H](O)C(=O)NCCC(=O)NCCSC(=O)CC(=O)O [malonyl-CoA]	–	IC50 (CPT-I muscle isoform): 30 nM; IC50 (CPT-I liver isoform): 2500 nM

Now from value to molecule, other results behind:

Ki ([1]; Table 1, MCD inhibition)	SMILES	further results
82.4 nM	CC(C)CN(C(=NC#N)Nc1ccc(C(F)(F)F)cc1)c1ccc2nc(S)sc2c1 [CBM-000302076]	–
1.5 nM	CCCN(C(=NC#N)Nc1ccc(C(=O)O)cc1)c1ccc2nc(S)sc2c1 [CBM-000302112]	–
15.2 nM	CCCN(C(=NC#N)Nc1ccc(OC)cc1)c1ccc2nc(S)sc2c1 [CBM-000302050]	–
24.2 nM	CCN(C(=NC#N)Nc1ccc(C(=O)NCC(C)C)cc1)c1ccc2nc(S)sc2c1 [CBM-000302243]	–
5.6 nM	CCCCNC(=O)c1ccc(NC(=NC#N)N(CC)c2ccc3nc(S)sc3c2)cc1 [CBM-000302244]	Ki ([1]; Table 2, MCD inhibition): 5.6 nM; GOX [2]: 152
0.3 nM	CC(C)CN(C(=NC#N)Nc1ccc(C(=O)O)cc1)c1ccc2nc(S)sc2c1 [CBM-000302088]	–
2.8 nM	CCN(C(=NC#N)Nc1ccc(C(N)=O)cc1)c1ccc2nc(S)sc2c1 [CBM-000302189]	Ki ([1]; Table 2, MCD inhibition): 2.8 nM; GOX [2]: 96
7.2 nM	CCCN(/C(=N/C#N)Nc1ccccc1)c1ccc2nc(S)sc2c1 [CBM-000302043]	–
4.7 nM	COC(=O)c1ccc(NC(=NC#N)N(CC(C)C)c2ccc3nc(S)sc3c2)cc1 [CBM-000302073]	–
67.1 nM	CCCN(C(=NC#N)Nc1ccc(OC(F)(F)F)cc1)c1ccc2nc(S)sc2c1 [CBM-000302052]	Ki ([1]; Table 2, MCD inhibition): 67.1 nM; GOX [2]: 131
7.1 nM	COc1ccc(NC(=NC#N)N(CC(C)C)c2ccc3nc(S)sc3c2)cc1 [CBM-000302064]	–
5.6 nM	CCCN(/C(=N/C#N)Nc1ccccc1)c1ccc2nc(S)sc2c1 [CBM-000302051]	–
3.5 nM	CCCN(C(=NC#N)Nc1ccc(C(F)(F)F)cc1)c1ccc2nc(S)sc2c1 [CBM-000302075]	Ki ([1]; Table 2, MCD inhibition): 3.5 nM; GOX [2]: 230
22.5 nM	CC(C)CN(C(=NC#N)Nc1ccc(OC(F)(F)F)cc1)c1ccc2nc(S)sc2c1 [CBM-000302065]	–
1.7 nM	CCN(/C(=N/C#N)Nc1ccc(C(F)(F)F)cc1)c1ccc2nc(S)sc2c1 [CBM-000302107, N-cyano-N′-ethyl-N′-(2-mercapto-benzothiazol-6-yl)-N″-(4-trifluoromethyl-phenyl)guanidine]	Ki ([1]; Table 2, MCD inhibition): 1.7 nM; GOX [2]: 290
